Experimental data taken from publication PMC10216731 (2023).

How the values were obtained:
[1] = tested on: aptamer for AMP (Apt) (DNA, aptamer) GCGGGCGGTTGTATAGCGG; experiment: fluorescence recovery by release of TPE-Am; settings: 99% PBS (PBS:DMSO), pH 7.4, 25 °C, aptamer 500 nM
[2] = tested on: aptamer for AMP (Apt) (DNA, aptamer) GCGGGCGGTTGTATAGCGG; experiment: fluorescence quenching of TPE-Am, lg[(F0-F)/F] against lg[Q] plot; settings: Na+, K+ from 10 mM PBS (Na2HPO4, KH2PO4, NaCl, KCl); individual cation concentrations not given; 305 K; PBS:DMSO 99% PBS; TPE-Am aggregated; also measured at 287 and 318 K; apparent
[3] = TPE-Am displacement, highest tested 100 nM

SMILES	binding [1, 3]	other results
CC1(C)S[C@@H]2[C@H](NC(=O)[C@H](N)c3ccccc3)C(=O)N2[C@H]1C(=O)O	–	binding ([1]; TPE-Am 1 μM displaced, 10 nM AMP): yes
CC[C@H]1OC(=O)[C@H](C)[C@@H](O[C@H]2C[C@@](C)(OC)[C@@H](O)[C@H](C)O2)[C@H](C)[C@@H](O[C@@H]2O[C@H](C)C[C@H](N(C)C)[C@H]2O)[C@](C)(O)C[C@@H](C)/C(=N\OCOCCOC)[C@H](C)[C@@H](O)[C@]1(C)O	no	–
CN(C)[C@@H]1C(=O)C(C(N)=O)=C(O)[C@@]2(O)C(=O)C3=C(O)c4c(O)cccc4[C@@](C)(O)[C@H]3C[C@@H]12	no	–
Nc1ccc(C(=C(c2ccccc2)c2ccccc2)c2ccccc2)cc1	–	Kb [2]: 626000 L/mol
O=C(N[C@H](CO)[C@H](O)c1ccc([N+](=O)[O-])cc1)C(Cl)Cl	no	–
O=[N+]([O-])N=C1NCCN1Cc1ccc(Cl)nc1	no	–
